The record followed here is ChEMBL document CHEMBL4270579, “Structure-activity relationship and conformational studies of the natural product cyclic depsipeptides YM-254890 and FR900359” (Eur J Med Chem, 2018).

Structures are written as SMILES. pIC50: −log10 of the molar value. *1 amine or outer side, *2 acyl side, *3 side chain or, on linkers, in order; H or OH if unused. Where a SMILES comes first, the peptide text is derived from it. Bridges are numbered along the chain shown (N, C = ends). [ ]: non-standard residue; d: D form. Leu(3R-O(AcLeu(3R-OH))) = CC(=O)N[C@H](C(=O)O[C@H](C(C)C)[C@H](N)C(=O)O)[C@H](O)C(C)C; X1 = CC(C)[C@@H](O[*:3])[C@H](N[*:1])C(=O)[*:2]; NMeT = CN[C@H](C(=O)O)[C@@H](C)O; dPhLac = O=C(O)[C@H](O)Cc1ccccc1; NMeA = CN[C@@H](C)C(=O)O; NMeDha = C=C(NC)C(=O)O

By pIC50 is commonly meant the negative decadic logarithm of the IC50, by convention in mol/L.

For test [1], the target named is T1, Guanine nucleotide-binding protein subunit alpha-11 (Homo sapiens, UniProt P29992).
T1 sequence (P29992 whole entry): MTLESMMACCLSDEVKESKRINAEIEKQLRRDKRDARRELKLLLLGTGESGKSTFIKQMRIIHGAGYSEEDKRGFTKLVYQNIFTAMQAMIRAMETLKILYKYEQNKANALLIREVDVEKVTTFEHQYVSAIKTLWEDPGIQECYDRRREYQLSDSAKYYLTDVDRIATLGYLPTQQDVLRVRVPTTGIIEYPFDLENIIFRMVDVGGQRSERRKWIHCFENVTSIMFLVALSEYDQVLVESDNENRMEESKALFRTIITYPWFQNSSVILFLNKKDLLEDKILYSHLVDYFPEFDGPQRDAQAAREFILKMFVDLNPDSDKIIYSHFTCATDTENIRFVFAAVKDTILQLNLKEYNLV
Kind of test: Inhibition of recombinant human Gq/11 coupled N-terminal 3His-tagged M1 receptor expressed in CHOK1 cells assessed as reduction in carbachol-induced IP1 accumulation pretreated for 1 hr followed by carbachol addition and subsequent incubation for 1 hr at 37 degC measured after 15 mins at room temperature by HTRF assay. The format is cell-based. A general note: Time-resolved FRET reads energy transfer from a long-lived donor to a nearby acceptor.

For test [2], the target named is Guanine nucleotide-binding protein G(s) subunit alpha isoforms XLas (Homo sapiens, UniProt Q5JWF2). As to the kind of experiment: Inhibition of Gs coupled adrenergic beta2 receptor in HEK293 cells assessed as reduction in isoproterenol-induced cAMP production pretreated for 1 hr followed by isoproterenol addition and measured after 30 mins by FRET assay. The format is cell-based. (Cyclic AMP is a second messenger, typically raised through Gs and lowered through Gi signalling.)
Chain of Guanine nucleotide-binding protein G(s) subunit alpha isoforms XLas (Q5JWF2 whole entry, canonical isoform): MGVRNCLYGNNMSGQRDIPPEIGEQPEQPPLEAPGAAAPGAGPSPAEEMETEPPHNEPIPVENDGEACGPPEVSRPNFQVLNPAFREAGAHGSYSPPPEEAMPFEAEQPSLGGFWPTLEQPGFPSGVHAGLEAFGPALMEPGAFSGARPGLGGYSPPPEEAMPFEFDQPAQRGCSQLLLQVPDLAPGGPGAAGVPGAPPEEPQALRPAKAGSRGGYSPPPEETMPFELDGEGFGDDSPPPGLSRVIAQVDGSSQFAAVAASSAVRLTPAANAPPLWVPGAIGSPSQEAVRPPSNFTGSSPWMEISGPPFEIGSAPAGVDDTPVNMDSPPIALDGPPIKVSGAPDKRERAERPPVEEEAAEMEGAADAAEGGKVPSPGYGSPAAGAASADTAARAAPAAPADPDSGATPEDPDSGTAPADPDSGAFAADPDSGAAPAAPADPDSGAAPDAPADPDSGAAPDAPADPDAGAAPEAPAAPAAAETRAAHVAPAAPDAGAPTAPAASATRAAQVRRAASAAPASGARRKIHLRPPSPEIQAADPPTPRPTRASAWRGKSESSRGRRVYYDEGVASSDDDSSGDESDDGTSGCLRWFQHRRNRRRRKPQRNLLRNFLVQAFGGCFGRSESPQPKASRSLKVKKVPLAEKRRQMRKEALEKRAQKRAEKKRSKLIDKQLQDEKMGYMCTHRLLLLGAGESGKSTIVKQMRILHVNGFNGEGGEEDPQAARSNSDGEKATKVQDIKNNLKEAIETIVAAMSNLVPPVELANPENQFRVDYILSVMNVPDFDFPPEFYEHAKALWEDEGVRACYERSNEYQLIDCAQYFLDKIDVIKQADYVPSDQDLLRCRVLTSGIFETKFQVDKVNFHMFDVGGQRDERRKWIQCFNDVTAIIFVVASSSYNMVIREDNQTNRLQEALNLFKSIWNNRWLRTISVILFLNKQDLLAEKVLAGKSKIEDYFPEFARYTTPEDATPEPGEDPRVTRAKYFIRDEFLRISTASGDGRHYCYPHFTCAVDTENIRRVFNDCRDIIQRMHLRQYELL

Regarding `C=C1C(=O)N[C@@H](C)C(=O)N(C)[C@@H](C)C(=O)N[C@@H]([C@H](OC(=O)[C@@H](NC(=O)c2ccccc2)[C@H](O)C(C)C)C(C)C)C(=O)N(C)[C@@H]([C@@H](C)OC)C(=O)O[C@H](C)[C@H](NC(C)=O)C(=O)O[C@H](Cc2ccccc2)C(=O)N1C`, the pIC50 is 5.63 in test [1] and less than 4.00 in test [2]. Consider `C=C1C(=O)N[C@@H](C)C(=O)N(C)[C@@H](C)C(=O)N[C@@H]([C@H](OC(=O)[C@@H](NC(=O)CCCCC)[C@H](O)C(C)C)C(C)C)C(=O)N(C)[C@@H]([C@@H](C)OC)C(=O)O[C@H](C)[C@H](NC(C)=O)C(=O)O[C@H](Cc2ccccc2)C(=O)N1C`, for which the pIC50 was 6.06 in test [1] and less than 4.00 in test [2].

`C=C1C(=O)N[C@@H](C)C(=O)N(C)[C@@H](C)C(=O)N[C@@H]([C@H](OC(=O)[C@@H](NC(C)=O)[C@H](O)C(C)C)C(C)C)C(=O)N(C)[C@@H]([C@@H](C)OC)C(=O)OC[C@H](NC(C)=O)C(=O)O[C@H](Cc2ccccc2)C(=O)N1C`: the pIC50 was 5.72 in test [1] and less than 4.00 in test [2]. The corresponding values for `C=C1C(=O)N[C@@H](C)C(=O)N(C)[C@@H](C)C(=O)N[C@@H]([C@H](OC(=O)[C@@H](NC(C)=O)[C@H](O)C(C)C)C(C)C)C(=O)N(C)[C@@H]([C@@H](C)OC)C(=O)O[C@H](C(C)C)[C@H](NC(C)=O)C(=O)O[C@H](Cc2ccccc2)C(=O)N1C` (Ac-[X1][dPhLac][NMeDha]A[NMeA][Leu(3R-O(AcLeu(3R-OH)))][NMeT](Me); ester 1-C) are 6.51 and less than 4.00. The corresponding values for `C=C1C(=O)N[C@@H](C)C(=O)N(C)[C@@H](C)C(=O)N[C@@H]([C@H](OC(=O)[C@@H](NC(C)=O)[C@H](O)C(C)C)C(C)C)C(=O)N(C)[C@@H]([C@@H](C)OC)C(=O)O[C@@H](C)[C@H](NC(C)=O)C(=O)O[C@H](Cc2ccccc2)C(=O)N1C` are less than 4.30 and less than 4.00. For the molecule `C=C1C(=O)N[C@@H](C)C(=O)N(C)[C@@H](C)C(=O)N[C@@H]([C@H](OC(=O)[C@@H](NC(C)=O)[C@H](O)C(C)C)C(C)C)C(=O)N(C)[C@@H]([C@@H](C)OC)C(=O)O[C@H](C)[C@H](NC(C)=O)C(=O)O[C@H](CC(C)C)C(=O)N1C`, the pIC50 in test [1] was 5.43; in test [2], less than 4.00. The corresponding values for `C=C1C(=O)N[C@@H](C)C(=O)N(C)[C@@H](C)C(=O)N[C@@H]([C@H](OC(=O)[C@@H](NC(C)=O)[C@H](O)C(C)C)C(C)C)C(=O)N(C)[C@@H]([C@@H](C)OC)C(=O)O[C@H](C)[C@H](NC(C)=O)C(=O)O[C@H](Cc2ccccc2)C(=O)N1C` are 6.82 and less than 4.00. Consider `C=C1C(=O)N[C@H](C)C(=O)N(C)[C@@H](C)C(=O)N[C@@H]([C@H](OC(=O)[C@@H](NC(C)=O)[C@H](O)C(C)C)C(C)C)C(=O)N(C)[C@@H]([C@@H](C)OC)C(=O)O[C@H](C)[C@H](NC(C)=O)C(=O)O[C@H](Cc2ccccc2)C(=O)N1C`, for which the pIC50 in test [1] was 4.44. Turning to `CO[C@H](C)[C@H]1C(=O)O[C@H](C)[C@H](NC(C)=O)C(=O)O[C@H](CC(C)C)C(=O)N(C)[C@H](CO)C(=O)N[C@@H](C)C(=O)N(C)[C@@H](C)C(=O)N[C@@H]([C@H](OC(=O)[C@@H](NC(C)=O)[C@H](O)C(C)C)C(C)C)C(=O)N1C`, the pIC50 is less than 4.30 in test [1] and less than 4.00 in test [2].
